Experimental data: patent US7429460B2, “Methods of screening for inhibitors of phospholipid synthesis related to glycolipid-storage diseases” (Yeda Research and Development Co., Ltd., priority 2003, dated 2008)

Assays:
rat hippocampal neurons [1] = experiment: [14C]PC degradation and acetolysis of [14C]PC in neurons; type: cell-based; settings: CBE-treated neurons
Experimental: In some cases, acetolysis was performed to determine the amount of [^14C]-radioactivity that remained in the [^14C]methyl choline head group moiety of [^14C]PC after 48 h labeling with [^14C]methyl choline. [^14C]PC was removed from TLC plates by scraping, eluted from the silica using chloroform/methanol/acetic acid/water (50:39:1:10, v/v/v/v), and subjected to acetolysis. Briefly, 2 ml of acetic anhydride/acetic acid (2:3, v/v) was added to the tubes containing [^14C]PC, the mixture heated at 140° C. for 16 h, 200 μl of water added to each tube, dried under N2, and separated into aqueous and organic phases. […] [^14C]-Lipids and the [^14C]-head group polar moieties were analyzed and quantified as above.
Since metabolic labeling with [^14C]methyl choline was performed for up to 48 h (due to the relatively low amount of neurons available), we analyzed whether the increase in [^14C]methyl choline levels was due to changes in the rate of [^14C]PC synthesis or in the rate of [^14C]PC degradation. Neurons were incubated with [^14C]methyl choline to metabolically label [^14C]PC, and the rate of [^14C]PC degradation measured. No difference in the rate of degradation between control and CBE-treated neurons was detected (FIG. 3). […]

[2] = test system: CTP:phosphocholine cytidylyltransferase (CCT); experiment: CCT assay in homogenates of treated hippocampal neurons; type: cell-based, rat; settings: neurons incubated with 500 μM CBE for 4- or 8-days
Experimental: Neurons from individual cover slips were washed twice with ice-cold phosphate-buffered saline, and cells removed by scraping into 300 μl of buffer containing 50 mM imidazole, 2 mM EDTA, 150 mM KCl, 6 mM ADP, 0.2 mM phenylmethylsulfonylfluoride, 1 μg/ml pepstatin and 1 μg/ml leupeptin. After brief sonication, an aliquot was removed for DNA determination and 100 μl was used for the CCT assay.
CCT was assayed as described (Weinhold P A and Feldman D A. 1992. Choline-phosphate cytidylyltransferase. Methods Enzymol. 209, 248-258), with some minor modifications. The assay was performed in a final volume of 200 μl containing 1.6 mM phosphorylcholine/0.25 μCi [^14C]methyl phosphorylcholine, 3 mM CTP, 12 mM magnesium acetate, and DOPC liposomes with or without oleic acid and GicCer or GalCer, as indicated in the figure legends. Liposomes were prepared by sonicating resuspended lipids in the assay buffer at room temperature for 3 min using a sonicator (Sonics & Materials Inc., Newtown, Conn.) fitted with a micro-tip probe set to 750 W output, using 25% of the maximal amplitude and with pulsations of 9.0 sec every 9.2 sec, which gave a translucent liposome preparation with no precipitates. The final concentration of DOPC and oleic acid in the liposomes was 500 μM each. […]

CCT α and β1/2 RNA = experiment: RT-PCR of CCT isoforms in treated neurons; type: cell-based, rat; settings: 500 μM CBE, up to 8-days
Experimental: Total cellular RNA was prepared from ˜0.5×10^6 neurons grown on 24 mm cover slips using the RNeasy Mini Kit (Qiagen, Hilden, Germany) according to manufacturers'instructions. The reverse transcription-polymerase chain reaction (RT-PCR) was performed using the QIAGEN OneStep RT-PCR kit (Qiagen, Hilden, Germany). Briefly, each reaction contained 10 ng of total RNA, 0.6 μM of primers, 1.6 mM deoxynucleotide triphosphates (0.4 mM each) and 1 μl QIAGEN OneStep RT-PCR Enzyme Mix in the supplied buffer in a total volume of 25 μl. Primers (CCT: 5′-ACTTTAGTAA GCCCTATGTC (SEQ ID NO. 7) and 5′-[…] (SEQ ID NO. 8), 34 cycles, annealing temperatures 53° C.; CCT: 5′-[…] (SEQ ID NO. 9) and 5′-[…] (SEQ ID NO. 10), 30 cycles, annealing temperature 51° C.; glyceraldehyde -3-phosphate dehydrogenase: 5′-TTAGCACCCCTGGCCAAGG (SEQ ID NO. 11) and 5′- ATTACTCCTT GGAGGCCATG (SEQ ID NO. 12), 23 cycles, annealing temperature 50° C.) were designed using the MacMolly Tetra program (Sofigene, Berlin, Germany) and were synthesized by the Weizmann Institute Oligonucleotide and Peptide Synthesis facility. […] PCR products, 9 μl each, were analyzed by electrophoresis in 1.5 % agarose gels.

rat hippocampal neurons [3] = settings: 500 μM CBE for 4- or 8-days; cited from earlier work

O[C@H]1[C@H](O)[C@@H](O)[C@@H]2O[C@@H]2[C@@H]1O (racemic) [CBE, conduritol-B-epoxide]
rate of [14C]PC degradation versus control (rat hippocampal neurons [1]): No difference
elevation of CCT activity [2]: 2-3 fold
CCT RNA levels (RT-PCR) (CCT α and β1/2 RNA): No changes
increase in the rate of incorporation of [3H]dihydrosphingosine into [3H]GlcCer (rat hippocampal neurons [3]): 4-5 fold
